No end group written: not given here.
How the values were obtained:
[1] = test system: Staphylococcus aureus (ATCC 29213); assay: Minimum bactericidal concentration (MBC) assay; type: cell-based; settings: Tables 11-21, no unit printed
Summary of the method: (§1)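 Strains were cultured in 3% TSB at 37° C and brought to 2×10^5 CFU/ml in SP buffer. This suspension was mixed with peptide (0–300 μg/ml) for 1 h at 37° C. Reaction mixtures were then plated on TS agar and incubated 18 h.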

CRPA = assay: Minimum bactericidal concentration (MBC) assay; type: cell-based; settings: Tables 11-21, no unit printed
[2] = test system: Human vascular endothelial cells (HUVECs); assay: Toxicity to human vascular endothelial cells (MTT); type: cell-based; settings: 0 μg/ml to 300 μg/ml
Procedure: PBS was used as a control.
The HUMEC medium was replaced with fresh medium, and KU-5878, melittin or magainin 2 were dispensed at various concentrations (0 μg/ml to 300 μg/ml). Then, each well was treated with 100 μl of MTT reagent and incubated at 37° C. for 2 hours. Then, the medium and the peptide were carefully removed so as not to separate the cells, and 100 μl of DMSO (dimethyl sulfoxide) was added to each well, and the absorbance at a wavelength of 570 nm was measured using a spectrophotometer. Relative cell viability was calculated as a percentage of the viability of untreated control cells.

[3] = test system: Pseudomonas aeruginosa (ATCC 27853); assay: Minimum bactericidal concentration (MBC) assay; type: cell-based; settings: Tables 11-21, no unit printed
Summary of the method: as §1

[4] = test system: Streptomyces sindenensis (ATCC 12392); type: cell-based; settings: ATCC 12392, 4 h
Procedure: (§2) Specifically, each type of bacteria was cultured in 3% (w/v) TSB (tryptic soy broth) liquid medium at 37° C. and 200 rpm for 4 hours, and then further cultured under the same conditions for 3 hours to a concentration of 5×10^6 CFU/ml. Strain solutions were prepared by diluting each of the further cultured strains with SP buffer to a final concentration of 2×10^5 CFU/ml.
(§3) Then, the KU-5878 peptide at varying concentrations (0 μg/ml to 300 μg/ml) was dispensed into each well of a 96-well microplate, and 100 μl (1×10^5 CFU/ml) of each of the prepared strain solutions was added thereto, mixed therewith, and allowed to react with the peptide in an incubator at 37° C. for 1 hour.
(§4) In addition, 10 μl of each reaction solution of the peptide and the strain was plated on the TS agar plate at a constant size, and incubated in an incubator at 37° C. for 18 hours, and then colony formation on the plate was checked. The minimum bactericidal concentration was defined as the minimum concentration of the peptide at which no colony was formed, and the experimental results are shown in Table 2 below.

[5] = test system: Bacillus subtilis (ATCC 6633); type: cell-based; settings: ATCC 6633, 4 h
Procedure: as §2, §3, §4

[6] = test system: Enterobacter aerogenes (ATCC 13048); type: cell-based; settings: ATCC 13048, 4 h
Procedure: as §2, §3, §4

[7] = test system: Methicillin-resistant Staphylococcus aureus (MRSA, ATCC 33591); assay: Minimum bactericidal concentration (MBC) assay; type: cell-based; settings: Tables 11-21, no unit printed
Summary of the method: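 Peptide at 0 to 300 μg/ml reacted 1 h at 37 °C with 1×10^5 CFU/ml bacteria in SP buffer (10 mM sodium phosphate, 1% TSB), bacteria pre-grown in 3% TSB. Aliquots then spread on TS agar and checked for colonies after 18 h at 37 °C.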

[8] = test system: Staphylococcus aureus, Pseudomonas aeruginosa, methicillin-resistant Staphylococcus aureus and multidrug-resistant Pseudomonas aeruginosa; assay: Bacteria remaining in the blood of infected mice after intravenous injection of the drug; type: in vivo, mice (C57BL/6); settings: 10 mg/kg intravenous 1 hour after infection; blood 40 minutes after injection; compared with LL-37, magainin 2, daptomycin
Procedure: Specifically, Staphylococcus aureus, Pseudomonas aeruginosa, methicillin-resistant Staphylococcus aureus and multidrug-resistant Pseudomonas aeruginosa was cultured in 3% (w/v) TSB liquid medium at 37° C. and 200 rpm for 4 hours, and then further cultured under the same conditions for 3 hours to a concentration of 5×10^9 CFU/ml. Strain solutions were prepared by diluting each of the further cultured strains with PBS solution to a final concentration of 1×10^5 CFU/μl.
Next, 100 μl of each strain solution was injected intravenously (IV) into the tail vein of each of 10-week-old male mice (C57BL/6). After one hour, KU-5878 was intravenously injected at a concentration of 10 mg/kg. As a control, PBS was intravenously injected at a concentration of 10 mg/kg, and as a positive control, LL-37, magainin 2, or daptomycin was intravenously injected at a concentration of 10 mg/kg.
40 minutes after the intravenous injection of each drug, about 1 cm from the tail end of each mouse was cut using surgical scissors, and 10 μl of the blood at the end of the cut was collected and diluted in PBS. The diluted blood sample was plated on a previously prepared TSB agar plate and incubated in an incubator at 37° C. for 18 hours, and the formed colonies were counted for comparison.

KTMMQSGGTFGTFMAIGMGIR [KU-5878]
MBC Staphylococcus aureus [1]: 100 µg/mL
MBC CRPA (CRPA): 110 µg/mL
toxicity to the HUVECs (relative cell viability, MTT) [2]: very low toxicity
MBC Pseudomonas aeruginosa [3]: 100 µg/mL
MBC value [4]: 95 µg/mL
MBC value [5]: 90 µg/mL
MBC value [6]: 90 µg/mL
MBC MRSA [7]: 110 µg/mL
MBC MRSA ([7]; listed as 5878): 100 µg/mL
number of bacteria remaining in the blood vessels of the mice [8]: most greatly decreased

Source: patent publication US12115209B2, “ROMO1-derived antimicrobial peptides including lysine substitution and variants thereof” (KOREA UNIVERSITY RESEARCH AND BUSINESS FOUNDATION, priority 2019, dated 2024)
